target: T1, ΔF508 mutant CFTR (Homo sapiens, UniProt P13569, DEL508-508); test: Fluorescence Assay (halide-sensitive YFP, iodide influx) for ΔF508 mutant CFTR activity; type: cell-based; conditions: FRT cells expressing ΔF508-CFTR and YFP-H148Q/I152L, incubated 27° C. 20-24 h; forskolin (20 μM) and test compounds (20 μM) for 20 min; rate of fluorescence quenching by I−, normalized to forskolin alone
T1 construct: expressed in transfected cells; host or cells: Fischer rat thyroid (FRT) cells
Source text: The ΔF508 mutant CFTR activities of the CFTR modulators are detected using the Fluorescence Assay developed by Pedemonte (Pedemonte N., et al., Antihypertensive 1,4-dihydropyridines as correctors of the cystic fibrosis transmembrane conductance regulator channel gating defect caused by cystic fibrosis mutations, Mol. Pharmacol., 2005, 68, 1736-1746).
Fischer rat thyroid (FRT) cells, stably transfected with ΔF508 were retransfected with the YFP-H148Q/I152L fluorescent protein. The cells were plated (100,000 cells/well) on black 96-well microplates with clear plastic bottom (Corning Life Sciences, Acton, Mass.).
The 96-well microplates containing FRT cells expressing F508-CFTR and the halide-sensitive YFP were incubated at 27° C. for 20 to 24 h to allow rescue of the mutant protein to the plasma membrane. After incubation, cells were washed with PBS (containing 137 mM NaCl, 2.7 mM KCl, 8.1 mM Na2HPO4, 1.5 mM KH2PO4, 1 mM CaCl2, and 0.5 mM MgCl2) and stimulated for 20 min with forskolin (20 μM) and test compounds (20 μM) in a final volume of […] Microplates were then transferred to a microplate reader for CFTR activity determination.

T1 sequence (P13569 with tags, fused parts or gaps DEL508-508): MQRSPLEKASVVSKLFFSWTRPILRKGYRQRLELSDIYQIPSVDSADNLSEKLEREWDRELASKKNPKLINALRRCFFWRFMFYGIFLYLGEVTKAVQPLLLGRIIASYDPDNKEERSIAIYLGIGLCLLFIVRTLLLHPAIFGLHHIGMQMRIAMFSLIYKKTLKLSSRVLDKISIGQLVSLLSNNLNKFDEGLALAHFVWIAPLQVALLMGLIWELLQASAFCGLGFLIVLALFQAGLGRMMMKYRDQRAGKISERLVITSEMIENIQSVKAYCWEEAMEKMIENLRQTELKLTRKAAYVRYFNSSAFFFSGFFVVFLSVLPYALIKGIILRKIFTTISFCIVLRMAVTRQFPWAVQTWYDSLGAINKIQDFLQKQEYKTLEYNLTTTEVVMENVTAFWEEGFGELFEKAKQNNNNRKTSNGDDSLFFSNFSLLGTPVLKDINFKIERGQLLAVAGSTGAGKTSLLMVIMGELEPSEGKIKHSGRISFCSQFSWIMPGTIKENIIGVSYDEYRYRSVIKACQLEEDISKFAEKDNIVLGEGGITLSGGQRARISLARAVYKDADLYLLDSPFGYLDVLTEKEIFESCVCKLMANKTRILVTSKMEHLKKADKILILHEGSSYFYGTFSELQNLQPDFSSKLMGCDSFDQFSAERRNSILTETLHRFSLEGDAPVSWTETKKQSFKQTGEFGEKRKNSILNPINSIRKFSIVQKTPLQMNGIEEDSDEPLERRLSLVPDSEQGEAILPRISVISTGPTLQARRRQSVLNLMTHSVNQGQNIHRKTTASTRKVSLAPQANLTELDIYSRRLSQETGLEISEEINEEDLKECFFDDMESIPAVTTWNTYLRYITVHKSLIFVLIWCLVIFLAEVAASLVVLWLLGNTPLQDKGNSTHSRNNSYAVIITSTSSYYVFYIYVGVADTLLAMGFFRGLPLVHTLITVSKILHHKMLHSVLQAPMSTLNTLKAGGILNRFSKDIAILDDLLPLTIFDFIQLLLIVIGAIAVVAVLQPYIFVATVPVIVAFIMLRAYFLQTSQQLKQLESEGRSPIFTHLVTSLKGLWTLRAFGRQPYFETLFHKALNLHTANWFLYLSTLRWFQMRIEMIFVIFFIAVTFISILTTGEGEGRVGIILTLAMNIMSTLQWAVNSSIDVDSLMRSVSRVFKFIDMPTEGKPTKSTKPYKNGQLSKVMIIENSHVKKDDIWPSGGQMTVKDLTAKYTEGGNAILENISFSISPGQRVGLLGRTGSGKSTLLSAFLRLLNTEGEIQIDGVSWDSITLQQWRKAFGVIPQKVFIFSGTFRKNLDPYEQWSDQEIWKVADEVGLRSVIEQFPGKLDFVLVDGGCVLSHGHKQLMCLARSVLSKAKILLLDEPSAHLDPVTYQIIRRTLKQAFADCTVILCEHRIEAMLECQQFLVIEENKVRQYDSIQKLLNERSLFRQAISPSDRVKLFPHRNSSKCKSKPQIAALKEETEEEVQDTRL

Compound	CFTR Activity
Cl.Nc1cc(F)c(-c2c(F)cccc2F)nc1C(=O)Nc1cnsc1OCC1CCNCC1 [Example 23, 3-amino-6-(2,6-difluorophenyl)-5-fluoro-N-(5-(piperidin-4-ylmethoxy)isothiazol-4-yl)picolinamide hydrochloride]	2.2
O=C(Nc1cnsc1OCCCCO)c1ccc(F)c(-c2c(F)cccc2F)n1 [Example 19, 6-(2,6-difluorophenyl)-5-fluoro-N-(5-(4-hydroxybutoxy)isothiazol-4-yl)picolinamide]	0.1
Cl.O=C(Nc1cnsc1OCC1CCNC1)c1ccc(F)c(-c2c(F)cccc2F)n1 (stereo not drawn) [Example 8, 6-(2,6-difluorophenyl)-5-fluoro-N-(5-(pyrrolidin-3-ylmethoxy)isothiazol-4-yl)picolinamide hydrochloride]	0.7
Cl.O=C(Nc1cnsc1OC1CCNC1)c1ccc(F)c(-c2c(F)cccc2F)n1 (stereo not drawn) [Example 4, 6-(2,6-difluorophenyl)-5-fluoro-N-(5-(pyrrolidin-3-yloxy)isothiazol-4-yl)picolinamide hydrochloride]	0.8
O=C(Nc1cnsc1OCCCO)c1ccc(F)c(-c2c(F)cccc2F)n1 [Example 17, 6-(2,6-difluorophenyl)-5-fluoro-N-(5-(3-hydroxypropoxy)isothiazol-4-yl)picolinamide]	0.1
Cl.O=C(Nc1cnsc1OCC1CNC1)c1ccc(F)c(-c2c(F)cccc2F)n1 [Example 2, N-(5-(azetidin-3-ylmethoxy)isothiazol-4-yl)-6-(2,6-difluorophenyl)-5-fluoropicolinamide hydrochloride]	0.2
CC(O)CCOc1sncc1NC(=O)c1ccc(F)c(-c2c(F)cccc2F)n1 (stereo not drawn) [Example 18, 6-(2,6-difluorophenyl)-5-fluoro-N-(5-(3-hydroxybutoxy)isothiazol-4-yl)picolinamide]	0.12
Cl.O=C(Nc1cnsc1OC1CNC1)c1ccc(F)c(-c2c(F)cccc2F)n1 [Example 9, N-(5-(azetidin-3-yloxy)isothiazol-4-yl)-6-(2,6-difluorophenyl)-5-fluoropicolinamide hydrochloride]	0.1
Cl.O=C(Nc1cnsc1OC1CCNCC1)c1ccc(F)c(-c2c(F)cccc2F)n1 [Example 3, 6-(2,6-difluorophenyl)-5-fluoro-N-(5-(piperidin-4-yloxy)isothiazol-4-yl)picolinamide hydrochloride]	1.3
CN(C)CCCOc1sncc1NC(=O)c1ccc(F)c(-c2c(F)cccc2F)n1.Cl [Example 14, 6-(2,6-difluorophenyl)-N-(5-(3-(dimethylamino)propoxy)isothiazol-4-yl)-5-fluoropicolinamide hydrochloride]	0.3
Cl.NCCCCOc1sncc1NC(=O)c1ccc(F)c(-c2c(F)cccc2F)n1 [Example 15, N-(5-(4-aminobutoxy)isothiazol-4-yl)-6-(2,6-difluorophenyl)-5-fluoropicolinamide hydrochloride]	0.7
CNCCCCOc1sncc1NC(=O)c1ccc(F)c(-c2c(F)cccc2F)n1.Cl [Example 16, 6-(2,6-difluorophenyl)-5-fluoro-N-(5-(4-(methylamino)butoxy)isothiazol-4-yl)picolinamide hydrochloride]	0.5
Cl.Nc1cc(F)c(-c2c(F)cccc2F)nc1C(=O)Nc1cnsc1OC1CCNC1 (stereo not drawn) [Example 24, 3-amino-6-(2,6-difluorophenyl)-5-fluoro-N-(5-(pyrrolidin-3-yloxy)isothiazol-4-yl)picolinamide hydrochloride]	1.9
Cl.Nc1cc(F)c(-c2c(F)cccc2F)nc1C(=O)Nc1cnsc1OC1CCCNCC1 (stereo not drawn) [Example 26, 3-amino-N-(5-(azepan-4-yloxy)isothiazol-4-yl)-6-(2,6-difluorophenyl)-5-fluoropicolinamide hydrochloride]	3.1
Cl.O=C(Nc1cnsc1OCC1CCCNC1)c1ccc(F)c(-c2c(F)cccc2F)n1 (stereo not drawn) [Example 7, 6-(2,6-difluorophenyl)-5-fluoro-N-(5-(piperidin-3-ylmethoxy)isothiazol-4-yl)picolinamide hydrochloride]	0.9

More lines, now with the values ahead:

CFTR Activity	Compound
0.2	Cl.Nc1cc(C(F)(F)F)c(-c2c(F)cccc2F)nc1C(=O)Nc1cnsc1OCC1CCNCC1 [Example 49, 3-amino-6-(2,6-difluorophenyl)-N-(5-(piperidin-4-ylmethoxy)isothiazol-4-yl)-5-(trifluoromethyl)picolinamide hydrochloride]
1	Cl.N[C@H]1CC[C@H](Oc2sncc2NC(=O)c2ccc(C(F)(F)F)c(-c3c(F)cccc3F)n2)CC1 [Example 46, N-(5-(((1r,4r)-4-aminocyclohexyl)oxy)isothiazol-4-yl)-6-(2,6-difluorophenyl)-5-(trifluoromethyl)picolinamide hydrochloride]
0.3	Cl.O=C(Nc1cnsc1OC1CCNCC1)c1ccc(F)c(-c2ccncc2)n1 [Example 39, 3-fluoro-N-(5-(piperidin-4-yloxy)isothiazol-4-yl)-[2,4′-bipyridine]-6-carboxamide hydrochloride]
1.7	Cl.Nc1cc(F)c(-c2c(F)cccc2F)nc1C(=O)Nc1cnsc1OCC1CCNC1 (stereo not drawn) [Example 28, 3-amino-6-(2,6-difluorophenyl)-5-fluoro-N-(5-(pyrrolidin-3-ylmethoxy)isothiazol-4-yl)picolinamide hydrochloride]
4.6	Cl.Nc1cc(C(F)(F)F)c(-c2c(F)cccc2F)nc1C(=O)Nc1cnsc1O[C@H]1CC[C@H](N)CC1 [Example 52, 3-amino-N-(5-(((1r,4r)-4-aminocyclohexyl)oxy)isothiazol-4-yl)-6-(2,6-difluorophenyl)-5-(trifluoromethyl)picolinamide hydrochloride]
0.4	Cl.Nc1cc(C(F)(F)F)c(-c2ccccc2)nc1C(=O)Nc1cnsc1OC1CCNC1 (stereo not drawn) [Example 53, 3-amino-6-phenyl-N-(5-(pyrrolidin-3-yloxy)isothiazol-4-yl)-5-(trifluoromethyl)picolinamide hydrochloride]
0.1	Cl.Nc1cc(C(F)(F)F)c(-c2c(F)cccc2F)nc1C(=O)Nc1cnsc1OCC1CNC1 [Example 50, 3-amino-N-(5-(azetidin-3-ylmethoxy)isothiazol-4-yl)-6-(2,6-difluorophenyl)-5-(trifluoromethyl)picolinamide hydrochloride]
0.3	Cl.Nc1cc(F)c(-c2c(F)cccc2F)nc1C(=O)Nc1cnsc1OCC1CNC1 [Example 32, 3-amino-N-(5-(azetidin-3-ylmethoxy)isothiazol-4-yl)-6-(2,6-difluorophenyl)-5-fluoropicolinamide hydrochloride]
0.3	Cl.O=C(Nc1cnsc1OCC1CCNCC1)c1ccc(C(F)(F)F)c(-c2c(F)cccc2F)n1 [Example 43, 6-(2,6-difluorophenyl)-N-(5-(piperidin-4-ylmethoxy)isothiazol-4-yl)-5-(trifluoromethyl)picolinamide hydrochloride]
1.6	COc1cccc(F)c1-c1nc(C(=O)Nc2cnsc2OC2CCCNCC2)ccc1F.Cl (stereo not drawn) [Example 41, N-(5-(azepan-4-yloxy)isothiazol-4-yl)-5-fluoro-6-(2-fluoro-6-methoxyphenyl)picolinamide hydrochloride]
1.3	Cl.Nc1cc(F)c(-c2ccccc2)nc1C(=O)Nc1cnsc1OC1CCNC1 (stereo not drawn) [Example 38, 3-amino-5-fluoro-6-phenyl-N-(5-(pyrrolidin-3-yloxy)isothiazol-4-yl)picolinamide hydrochloride]
0.4	Cl.Nc1cc(C(F)(F)F)c(-c2c(F)cccc2F)nc1C(=O)Nc1cnsc1OC1CCCC(N)C1 (stereo not drawn) [Example 61, 3-amino-N-(5-((3-aminocyclohexyl)oxy)isothiazol-4-yl)-6-(2,6-difluorophenyl)-5-(trifluoromethyl)picolinamide hydrochloride]
0.4	Cl.O=C(Nc1cnsc1OC1CCCNCC1)c1ccc(C(F)(F)F)c(-c2c(F)cccc2F)n1 (stereo not drawn) [Example 42, N-(5-(azepan-4-yloxy)isothiazol-4-yl)-6-(2,6-difluorophenyl)-5-(trifluoromethyl)picolinamide hydrochloride]
1.6	Cl.Nc1cc(F)c(-c2c(F)cccc2F)nc1C(=O)Nc1cnsc1OCC1CCCNC1 (stereo not drawn) [Example 35, 3-amino-6-(2,6-difluorophenyl)-5-fluoro-N-(5-(piperidin-3-ylmethoxy)isothiazol-4-yl)picolinamide hydrochloride]
2.8	Cl.Nc1cc(F)c(-c2c(F)cccc2F)nc1C(=O)Nc1cnsc1O[C@H]1CC[C@H](N)CC1 [Example 27, 3-amino-N-(5-(((1r,4r)-4-aminocyclohexyl)oxy)isothiazol-4-yl)-6-(2,6-difluorophenyl)-5-fluoropicolinamide hydrochloride]

Source: US9890149B2 (NuBridge BioSciences, priority 2015, dated 2018)
